According to patent US10030020B2, “Spirocycle compounds and methods of making and using same” (Abide Therapeutics, Inc., priority 2016, dated 2018):

Key:
Type in all cases: biochemical
[1] = target: MAGL (Mus musculus (Mouse), UniProt O35678); experiment: In vitro competitive activity-based protein profiling (mouse brain membrane fraction or cell lysates), MAGL band; conditions: mouse proteome; for inhibition at 1 µM: read-out: MAGL % Inh 1 μM (mouse); for IC50: competitive ABPP
Protocol: In Vitro Competitive Activity-Based Protein Profiling.
Proteomes (mouse brain membrane fraction or cell lysates) (50 μL, 1.0 mg/mL total protein concentration) were preincubated with varying concentrations of inhibitors at 37° C. After 30 min, FP—Rh (1.0 μL, 50 μM in DMSO) was added and the mixture was incubated for another 30 min at 37° C. Reactions were quenched with SDS loading buffer (50 μL-4×) and run on SDS-PAGE.

[2] = target: ABHD6 (Mus musculus (Mouse), UniProt Q8R2Y0); experiment: In vitro competitive activity-based protein profiling (mouse brain membrane fraction or cell lysates), ABHD6 band; conditions: mouse proteome; for inhibition at 1 µM: read-out: ABHD6 % Inh 1 μM (mouse); for IC50: competitive ABPP
Sequence of ABHD6 (Q8R2Y0 whole entry): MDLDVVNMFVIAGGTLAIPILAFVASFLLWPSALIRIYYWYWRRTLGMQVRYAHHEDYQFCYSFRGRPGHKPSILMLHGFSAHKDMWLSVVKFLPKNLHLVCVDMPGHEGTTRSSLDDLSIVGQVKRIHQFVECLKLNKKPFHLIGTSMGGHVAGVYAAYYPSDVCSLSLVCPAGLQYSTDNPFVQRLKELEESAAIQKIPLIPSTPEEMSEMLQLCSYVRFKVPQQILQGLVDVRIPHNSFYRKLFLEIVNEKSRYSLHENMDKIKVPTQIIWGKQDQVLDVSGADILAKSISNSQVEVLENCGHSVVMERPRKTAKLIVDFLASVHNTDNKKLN
How it was run: (§1)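 Competitive ABPP: proteome 1.0 mg/mL protein + inhibitor, 30 min, 37° C; FP-Rh probe (stock 50 μM in DMSO) added, 30 min, 37° C; SDS quench, SDS-PAGE, fluorescent band intensity read.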

[3] = target: FAAH (Mus musculus (Mouse), UniProt O08914); experiment: In vitro competitive activity-based protein profiling (mouse brain membrane fraction or cell lysates), FAAH band; conditions: mouse proteome; for inhibition at 1 µM: read-out: FAAH % Inh 1 μM (mouse); for IC50: competitive ABPP
Sequence of FAAH (O08914 whole entry): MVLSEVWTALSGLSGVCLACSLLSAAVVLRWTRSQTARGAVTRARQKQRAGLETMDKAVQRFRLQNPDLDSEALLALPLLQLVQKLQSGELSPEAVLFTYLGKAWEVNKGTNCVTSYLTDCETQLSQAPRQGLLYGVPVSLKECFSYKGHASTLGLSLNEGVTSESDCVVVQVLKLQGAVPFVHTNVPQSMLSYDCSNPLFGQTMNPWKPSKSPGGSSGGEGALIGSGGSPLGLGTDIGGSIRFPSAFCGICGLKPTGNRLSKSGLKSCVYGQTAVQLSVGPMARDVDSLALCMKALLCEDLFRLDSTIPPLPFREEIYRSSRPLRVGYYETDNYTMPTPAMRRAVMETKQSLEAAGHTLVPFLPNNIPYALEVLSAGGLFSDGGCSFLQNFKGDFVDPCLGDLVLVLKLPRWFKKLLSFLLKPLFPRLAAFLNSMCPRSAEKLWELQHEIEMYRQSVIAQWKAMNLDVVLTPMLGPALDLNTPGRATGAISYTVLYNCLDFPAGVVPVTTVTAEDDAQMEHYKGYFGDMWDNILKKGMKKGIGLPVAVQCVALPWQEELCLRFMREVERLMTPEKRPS
How it was run: as §1

Sequence of MAGL (O35678 whole entry): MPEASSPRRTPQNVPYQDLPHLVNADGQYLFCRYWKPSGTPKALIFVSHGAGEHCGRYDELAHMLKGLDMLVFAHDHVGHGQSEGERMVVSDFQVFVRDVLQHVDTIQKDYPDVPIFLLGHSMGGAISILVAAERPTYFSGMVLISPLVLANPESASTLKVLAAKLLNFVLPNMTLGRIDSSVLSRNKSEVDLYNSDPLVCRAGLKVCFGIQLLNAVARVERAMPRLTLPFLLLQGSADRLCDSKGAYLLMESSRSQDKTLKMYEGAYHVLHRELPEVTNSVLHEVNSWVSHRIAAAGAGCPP

`O=C(OC(C(F)(F)F)C(F)(F)F)N1CCC2(CCCN2Cc2ccc(Cl)c(N3CCOCC3)c2)CC1` [Example 131, 1,1,1,3,3,3-Hexafluoropropan-2-yl 1-(4-chloro-3-morpholinobenzyl)-1,8-diazaspiro[4.5]decane-8-carboxylate] showed an inhibition at 1 µM [1] of over 75%, an IC50 [1] of under 100 nM and an inhibition at 1 µM [2] of under 25%. For the same molecule, the IC50 [2] was over 1000 nM, the inhibition at 1 µM [3] was under 25% and the IC50 [3] was over 1000 nM.
For `Cc1cc(CN2CCC3(CCN(C(=O)OC(C(F)(F)F)C(F)(F)F)CC3)C2)ccc1Cl` [Example 135, 1,1,1,3,3,3-Hexafluoropropan-2-yl 2-(4-chloro-3-methylbenzyl)-2,8-diazaspiro[4.5]decane-8-carboxylate], the inhibition at 1 µM [1] was over 75%, the IC50 [1] was under 100 nM and the inhibition at 1 µM [2] was at least 75%. It also gave an IC50 [2] of 100 to 1000 nM, an inhibition at 1 µM [3] of under 25% and an IC50 [3] of over 1000 nM.
Work on `Cc1ccc(CN2CCC3(CCN(C(=O)OC(C(F)(F)F)C(F)(F)F)CC3)C2)cc1Cl` [Example 136, 1,1,1,3,3,3-Hexafluoropropan-2-yl 2-(3-chloro-4-methylbenzyl)-2,8-diazaspiro[4.5]decane-8-carboxylate] yielded an inhibition at 1 µM [1] of over 75%, an IC50 [1] of 100 to 1000 nM and an inhibition at 1 µM [2] of at least 75%. It also gave an IC50 [2] of 100 to 1000 nM, an inhibition at 1 µM [3] of under 25% and an IC50 [3] of over 1000 nM.
For `O=C(OC(C(F)(F)F)C(F)(F)F)N1CCC2(CCN(Cc3ccc4c(c3)OCCO4)C2)CC1` [Example 137, 1,1,1,3,3,3-Hexafluoropropan-2-yl 2-((2,3-dihydrobenzo[b][1,4]dioxin-6-yl)methyl)-2,8-diazaspiro[4.5]decane-8-carboxylate], the inhibition at 1 µM [1] was over 75%, the IC50 [1] was 100 to 1000 nM and the inhibition at 1 µM [2] was at least 75%. For the same molecule, the IC50 [2] was under 100 nM, the inhibition at 1 µM [3] was under 25% and the IC50 [3] was over 1000 nM.
Work on `O=C(OC(C(F)(F)F)C(F)(F)F)N1CCC2(CCN(Cc3ccc(N4CCOCC4)c(Cl)c3)C2)CC1` [Example 138, 1,1,1,3,3,3-Hexafluoropropan-2-yl 2-(3-chloro-4-morpholinobenzyl)-2,8-diazaspiro[4.5]decane-8-carboxylate] yielded an inhibition at 1 µM [1] of over 75%, an inhibition at 1 µM [2] of at least 75% and an IC50 [2] of under 100 nM. For the same molecule, the inhibition at 1 µM [3] was under 25% and the IC50 [3] was over 1000 nM.
Molecule `O=C(OC(C(F)(F)F)C(F)(F)F)N1CCC2(CCN(Cc3ccc(N4CCCC4)c(Cl)c3)C2)CC1` [Example 139, 1,1,1,3,3,3-Hexafluoropropan-2-yl 2-(3-chloro-4-(pyrrolidin-1-yl)benzyl)-2,8-diazaspiro[4.5]decane-8-carboxylate] has an inhibition at 1 µM [1] of over 75%, an IC50 [1] of 100 to 1000 nM and an inhibition at 1 µM [2] of at least 75%. It also gave an IC50 [2] of 100 to 1000 nM, an inhibition at 1 µM [3] of under 25% and an IC50 [3] of over 1000 nM.
With `O=C(OC(C(F)(F)F)C(F)(F)F)N1CCC2(CCN(Cc3ccc(N4CCOCC4)c(C(F)(F)F)c3)C2)CC1` [Example 140, 1,1,1,3,3,3-Hexafluoropropan-2-yl 2-(4-morpholino-3-(trifluoromethyl)benzyl)-2,8-diazaspiro[4.5]decane-8-carboxylate] the inhibition at 1 µM [1] was over 75%, the IC50 [1] was under 100 nM and the inhibition at 1 µM [2] was at least 75%. The IC50 [2] was 100 to 1000 nM, the inhibition at 1 µM [3] was under 25% and the IC50 [3] was over 1000 nM.
`O=C(OC(C(F)(F)F)C(F)(F)F)N1CCC2(CCN(Cc3ccc(N4CCCC4)c(C(F)(F)F)c3)C2)CC1` [Example 141, 1,1,1,3,3,3-Hexafluoropropan-2-yl 2-(4-(pyrrolidin-1-yl)-3-(trifluoromethyl)benzyl)-2,8-diazaspiro[4.5]decane-8-carboxylate] gave an inhibition at 1 µM [1] of over 75%, an IC50 [1] of 100 to 1000 nM and an inhibition at 1 µM [2] of at least 75%. For the same molecule, the IC50 [2] was 100 to 1000 nM, the inhibition at 1 µM [3] was under 25% and the IC50 [3] was over 1000 nM.
For `CC(=O)N1CCCc2cccc(CN3CCCC34CCN(C(=O)OC(C(F)(F)F)C(F)(F)F)CC4)c21` [Example 142, 1,1,1,3,3,3-Hexafluoropropan-2-yl 1-((1-acetyl-1,2,3,4-tetrahydroquinolin-8-yl)methyl)-1,8-diazaspiro[4.5]decane-8-carboxylate], the inhibition at 1 µM [1] was over 75%, the IC50 [1] was 100 to 1000 nM and the inhibition at 1 µM [2] was under 25%. It also gave an IC50 [2] of over 1000 nM, an inhibition at 1 µM [3] of under 25% and an IC50 [3] of over 1000 nM.
`CS(=O)(=O)N1CCCc2cccc(CN3CCCC34CCN(C(=O)OC(C(F)(F)F)C(F)(F)F)CC4)c21` [Example 143, 1,1,1,3,3,3-Hexafluoropropan-2-yl 1-((1-methanesulfonyl-1,2,3,4-tetrahydroquinolin-8-yl)methyl)-1,8-diazaspiro[4.5]decane-8-carboxylate] gave an inhibition at 1 µM [1] of over 75%, an IC50 [1] of under 100 nM and an inhibition at 1 µM [2] of under 25%. The IC50 [2] was over 1000 nM, the inhibition at 1 µM [3] was under 25% and the IC50 [3] was over 1000 nM.
In the case of `CCN1CCc2cccc(CN3CCCC34CCN(C(=O)OC(C(F)(F)F)C(F)(F)F)CC4)c2C1` [Example 144, 1,1,1,3,3,3-Hexafluoropropan-2-yl 1-((2-ethyl-1,2,3,4-tetrahydroisoquinolin-8-yl)methyl)-1,8-diazaspiro[4.5]decane-8-carboxylate], the inhibition at 1 µM [1] is reported as over 75%, the IC50 [1] is reported as 100 to 1000 nM and the inhibition at 1 µM [2] is reported as 25 to 75%. It also gave an IC50 [2] of over 1000 nM, an inhibition at 1 µM [3] of under 25% and an IC50 [3] of over 1000 nM.
In the case of `CC(=O)N1CCc2cccc(CN3CCCC34CCN(C(=O)OC(C(F)(F)F)C(F)(F)F)CC4)c2C1` [Example 145, 1,1,1,3,3,3-Hexafluoropropan-2-yl 1-((2-acetyl-1,2,3,4-tetrahydroisoquinolin-8-yl)methyl)-1,8-diazaspiro[4.5]decane-8-carboxylate], the inhibition at 1 µM [1] is reported as over 75%, the IC50 [1] is reported as under 100 nM and the inhibition at 1 µM [2] is reported as under 25%. For the same molecule, the IC50 [2] was over 1000 nM, the inhibition at 1 µM [3] was under 25% and the IC50 [3] was over 1000 nM.
Work on `CC(C)N1CCc2cccc(CN3CCCC34CCN(C(=O)OC(C(F)(F)F)C(F)(F)F)CC4)c2C1` [Example 147, 1,1,1,3,3,3-Hexafluoropropan-2-yl 1-((2-isopropyl-1,2,3,4-tetrahydroisoquinolin-8-yl)methyl)-1,8-diazaspiro[4.5]decane-8-carboxylate] yielded an inhibition at 1 µM [1] of over 75%, an IC50 [1] of 100 to 1000 nM and an inhibition at 1 µM [2] of under 25%. The IC50 [2] was over 1000 nM, the inhibition at 1 µM [3] was under 25% and the IC50 [3] was over 1000 nM.
Work on `O=C(OC(C(F)(F)F)C(F)(F)F)N1CCC2(CCCN2Cc2cccc3c2CN(C2CC2)CC3)CC1` [Example 148, 1,1,1,3,3,3-Hexafluoropropan-2-yl 1-((2-cyclopropyl-1,2,3,4-tetrahydroisoquinolin-8-yl)methyl)-1,8-diazaspiro[4.5]decane-8-carboxylate] yielded an inhibition at 1 µM [1] of over 75%, an IC50 [1] of under 100 nM and an inhibition at 1 µM [2] of under 25%. For the same molecule, the IC50 [2] was over 1000 nM, the inhibition at 1 µM [3] was under 25% and the IC50 [3] was over 1000 nM.
For `CC(C)CN1CCc2cccc(CN3CCCC34CCN(C(=O)OC(C(F)(F)F)C(F)(F)F)CC4)c2C1` [Example 149, 1,1,1,3,3,3-Hexafluoropropan-2-yl 1-((2-(2-methylpropyl)-1,2,3,4-tetrahydroisoquinolin-8-yl)methyl)-1,8-diazaspiro[4.5]decane-8-carboxylate], the inhibition at 1 µM [1] was over 75%, the IC50 [1] was 100 to 1000 nM and the inhibition at 1 µM [2] was 25 to 75%. The IC50 [2] was over 1000 nM, the inhibition at 1 µM [3] was under 25% and the IC50 [3] was over 1000 nM.
Molecule `O=C(OC(C(F)(F)F)C(F)(F)F)N1CCC2(CCN(Cc3ccc4c(c3)COC4)C2)CC1` [Example 153, 1,1,1,3,3,3-Hexafluoropropan-2-yl 2-((1,3-dihydroisobenzofuran-5-yl)methyl)-2,8-diazaspiro[4.5]decane-8-carboxylate] has an inhibition at 1 µM [1] of over 75%, an IC50 [1] of 100 to 1000 nM and an inhibition at 1 µM [2] of at least 75%. It also gave an IC50 [2] of under 100 nM, an inhibition at 1 µM [3] of under 25% and an IC50 [3] of over 1000 nM.
In the case of `O=C(OC(C(F)(F)F)C(F)(F)F)N1CCC2(CCN(Cc3ccc(Cl)c(N4CCOCC4)c3)C2)CC1` [Example 154, 1,1,1,3,3,3-Hexafluoropropan-2-yl 2-(4-chloro-3-morpholinobenzyl)-2,8-diazaspiro[4.5]decane-8-carboxylate], the inhibition at 1 µM [1] is reported as over 75%, the IC50 [1] is reported as under 100 nM and the inhibition at 1 µM [2] is reported as at least 75%. The IC50 [2] was 100 to 1000 nM, the inhibition at 1 µM [3] was under 25% and the IC50 [3] was over 1000 nM.
`O=C(OC(C(F)(F)F)C(F)(F)F)N1CCC2(CCN(Cc3ccc(Cl)c(N4CCCC4)c3)C2)CC1` [Example 155, 1,1,1,3,3,3-Hexafluoropropan-2-yl 2-(4-chloro-3-(pyrrolidin-1-yl)benzyl)-2,8-diazaspiro[4.5]decane-8-carboxylate] showed an inhibition at 1 µM [1] of over 75%, an IC50 [1] of under 100 nM and an inhibition at 1 µM [2] of at least 75%. For the same molecule, the IC50 [2] was 100 to 1000 nM, the inhibition at 1 µM [3] was under 25% and the IC50 [3] was over 1000 nM.
Work on `O=C(OC(C(F)(F)F)C(F)(F)F)N1CCC2(CCN(Cc3ccc(C(F)(F)F)c(N4CCOCC4)c3)C2)CC1` [Example 156, 1,1,1,3,3,3-Hexafluoropropan-2-yl 2-(3-morpholino-4-(trifluoromethyl)benzyl)-2,8-diazaspiro[4.5]decane-8-carboxylate] yielded an inhibition at 1 µM [1] of over 75%, an IC50 [1] of under 100 nM and an inhibition at 1 µM [2] of at least 75%. The IC50 [2] was 100 to 1000 nM, the inhibition at 1 µM [3] was under 25% and the IC50 [3] was over 1000 nM.
`CCN1CCCc2cccc(CN3CCCC34CCN(C(=O)OC(C(F)(F)F)C(F)(F)F)CC4)c21` [Example 158, 1,1,1,3,3,3-Hexafluoropropan-2-yl 1-((1-ethyl-1,2,3,4-tetrahydroquinolin-8-yl)methyl)-1,8-diazaspiro[4.5]decane-8-carboxylate] showed an inhibition at 1 µM [1] of over 75%, an IC50 [1] of 100 to 1000 nM and an inhibition at 1 µM [2] of under 25%. It also gave an IC50 [2] of over 1000 nM, an inhibition at 1 µM [3] of under 25% and an IC50 [3] of over 1000 nM.
